Measurements published in patent publication US9745583B2, “Liposome for topical administration and application thereof” (DELTA-FLY PHARMA, INC., priority 2013, dated 2017).

Key:
[1] = system: TS gene; test: TS gene expression in collected tumor cells, quantitative RT-PCR (Example 9); format: in vivo, human; conditions: tumor cells collected 21 days after implantation; compared with control; GAPDH internal standard
Procedure: Mice of the groups subjected to the treatment in the same manner as in Example 8 were subjected to evaluation via IVIS 21 days after the implantation of the MSTO-211H-Luc cells, mice were sacrificed, tumor cells were collected from the thoracic cavity, and the inhibition of TS gene expression in the collected tumor cells was evaluated via quantitative RT-PCR.
RNA was extracted from tumor cells using the RNaqueous-micro kit (Ambion, Austin, Tex., U.S.A.) in accordance with the method recommended by the manufacturer. Reverse transcription of RNA into cDNA was carried out with the addition of Oligo (dT)20, dNTP, RNase inhibitor, and ReverTra Ace (Toyobo, Osaka, Japan) to RNA. Real-time PCR was carried out using the StepOnePlus real-time PCR system (Applied Biosystems, CA, U.S.A.), the reversely-transcribed cDNA as the template, and FastStart TaqMan Probe Master (ROX) and Universal ProbeLibrary (Roche Diagnostics GmbH, Manheim, Germany) as reagents, in accordance with the method recommended by the manufacturer. GAPDH was used as the internal standard.

[2] = system: MSTO-211H-Luc cells; test: Tumor growth inhibition by intrathoracic TS-lipoplex and TS-preplex in orthotopic models (Example 11); format: in vivo, mouse; conditions: IVIS 18 days after implantation; 20 μg shRNA intrathoracic x5; PMX 25 mg/kg i.p. x10
Procedure: Orthotopic implantation models of malignant pleural mesothelioma using the MSTO-211H-Luc cells were prepared by the method described in Example 4, and the mice 4 days after implantation were subjected to the in vivo experiment.
The TS-lipoplex or TS-preplex was administered directly into the thoracic cavity 4, 7, 10, 13, and 16 days after the tumor implantation, so that 20 μg (50 μl) of shRNA would be administered.
When an existing chemotherapeutic agent (Alimta; pemetrexed sodium hydrate (PMX), Eli Lilly) was used in combination, a dose of 25 mg/kg was intraperitoneally administered every day from 4 days to 8 days after the tumor implantation, the same amount of the agent was intraperitoneally administered after an interval of 2 days every day from 11 days to 15 days after the tumor implantation, and administration was carried out 10 times in total.
Two days after the final administration of the TS-lipoplex or TS-preplex (i.e., 18 days after the tumor implantation), 100 μl of a D-luciferin potassium salt solution (7.5 mg/ml) was administered intraperitoneally under anesthesia with isoflurane, and the bioluminescence levels depending on luciferase activity in the MSTO-211H-Luc cells that had grown in the thoracic cavity were evaluated using IVIS (Xenogen, Alameda, Calif., U.S.A.).

[3] = system: MSTO-211H-Luc cells; test: Tumor growth inhibition by intrathoracic TS-shRNA lipoplex in orthotopic mouse models of malignant pleural mesothelioma (Example 8); format: in vivo; conditions: compared with control; IVIS 21 days after implantation; lipoplex 20 μg shRNA intrathoracic x6; PMX 25 mg/kg i.p. x10
Procedure: Orthotopic implantation mouse models of malignant pleural mesothelioma using the MSTO-211H-Luc cells were prepared by the method described in Example 3, and mice in which implanted cells had been sufficiently fixed 7 days after implantation were subjected to in vivo experiment.
The TS-shRNA lipoplex or NS-shRNA lipoplex was directly administered into the thoracic cavity of a mouse carrying MSTO-211H-Luc cells every other day from 7 days to 17 days after the tumor implantation, and administration was carried out 6 times in total. A dose was 20 μg of shRNA/100 μl. […]
As described in Example 5, carcinostatic activity (i.e., cell growth inhibitory activity) was evaluated by implanting MSTO-211H-Luc cells, administering 100 μl of a D-luciferin potassium salt solution (7.5 mg/ml) intraperitoneally under anesthesia with isoflurane 21 days after implantation, and evaluating the bioluminescence levels depending on activity of the MSTO-211H-Luc cells that had grown in the thoracic cavity using IVIS (Xenogen, Alameda, Calif., U.S.A.).

[4] = system: human malignant pleural mesothelioma cells (MSTO-211H); test: MTT assay, cell growth after shRNA transfection with or without PMX; format: cell-based; conditions: shRNA 5 or 10 nM with Lf RNAi MAX; in the presence of PMX 0.01 μg/ml; 0-96 hours
Procedure: This experiment was carried out on a 96-well plate scale. Transfection was carried out using Lipofectamine® RNAi MAX (hereafter referred to as “Lf RNAi MAX”), which is a cationic liposome, in accordance with the manufacturer's instructions.
shRNA (300 pmol of TS-shRNA or NS-shRNA) and 15 μl of Lf RNAi MAX were separately diluted with OptiMEM to prepare solutions (500 n1 each), the resulting solutions were mixed with each other, and the mixture was allowed to stand at room temperature for 10 to 20 minutes to form a complex (i.e., a lipoplex). A suspension of human malignant pleural mesothelioma cells (MSTO-211H) (2,000 cells/100 n1) was added to wells, 50 μl of lipoplex was added thereto 24 hours thereafter, and the final total volume was adjusted to 150 μl (the final shRNA concentration in the wells was adjusted to 5 nM or 10 nM). The medium was removed 24 hours after the initiation of transfection, and 200 μl of a fresh medium containing or not containing an existing cancer chemotherapeutic agent (“Alimta,” pemetrexed sodium hydrate, PMX, Eli Lilly) at 0.01 μg/ml was added thereto. The medium was removed 0, 24, 48, 72, and 96 hours after the addition of the fresh medium. […]
After the completion of incubation, acidic isopropanol (150 μl) was added to each well. […] Absorbance was determined at a wavelength of 570 nm using a plate reader. […]

| Compound | TS gene inhibitory effects (TS mRNA) [1] | tumor growth inhibitory effects [2] | tumor growth inhibitory effects [3] | growth of MSTO-211H cells (cell growth rate, MTT) [4] |
| --- | --- | --- | --- | --- |
| Nc1nc2[nH]cc(CCc3ccc(C(=O)N[C@@H](CCC(=O)O)C(=O)O)cc3)c2c(=O)[nH]1 [PMX, pemetrexed sodium hydrate] | about 25% | insignificant | about 50% | – |
| TS-shRNA: TS-targeting shRNA, SEQ ID NO: 8 (GUAACACCAUCGAUCAUGAUAGUGCUCCUGGUUGUCAUGAUCGAUGGUGUUACUU; siRNA; shRNA hairpin, further chemistry not given here) | – | – | – | inhibited the growth of MSTO-211H cells to a significant extent |
